Where two headings read alike, the source gives them in different places.
What was measured:
Experiment in all cases: biochemical
Parameters in all cases: KINOMEscan active site-directed competition binding assay (DiscoveRx), 456 kinases, per cent of control at 300 nM
Settings in all cases: read-out: Percent of Control (%)
[1] = molecular target: BRSK1 (Homo sapiens, UniProt Q8TDC3)
In short: (§1)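 Each compound is tested at 300 nmol/L against a panel of 456 kinases. Interaction is quantified by competition for the kinase active site.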

[2] = molecular target: CAMK1G (Homo sapiens, UniProt Q96NX5)
In short: as §1

[3] = molecular target: CIT (Homo sapiens, UniProt O14578)
In short: as §1

[4] = molecular target: T1, DCAMKL3 (Homo sapiens, UniProt Q9C098)
T1 construct: gene DCLK3
In short: as §1

[5] = molecular target: T2, DRAK1 (Homo sapiens, UniProt Q9UEE5)
T2 construct: gene STK17A
In short: as §1

[6] = molecular target: EGFR(L747-T751del,Sins) (Homo sapiens, UniProt P00533, DEL747-750/T751S)
In short: as §1

[7] = molecular target: T3, FAK (Homo sapiens, UniProt Q05397)
T3 construct: gene PTK2
In short: as §1

[8] = molecular target: FLT3(D835Y) (Homo sapiens, UniProt P36888, D835Y)
In short: as §1

[9] = molecular target: HIPK4 (Homo sapiens, UniProt Q8NE63)
In short: as §1

[10] = molecular target: MAPKAPK2 (Homo sapiens, UniProt P49137)
In short: as §1

[11] = molecular target: NEK2 (Homo sapiens, UniProt P51955)
In short: as §1

[12] = molecular target: PHKG2 (Homo sapiens, UniProt P15735)
In short: as §1

[13] = molecular target: PIK3CA (Homo sapiens, UniProt P42336)
In short: as §1

[14] = molecular target: PIP5K1A (Homo sapiens, UniProt Q99755)
PIP5K1A, sequence (Q99755 whole entry): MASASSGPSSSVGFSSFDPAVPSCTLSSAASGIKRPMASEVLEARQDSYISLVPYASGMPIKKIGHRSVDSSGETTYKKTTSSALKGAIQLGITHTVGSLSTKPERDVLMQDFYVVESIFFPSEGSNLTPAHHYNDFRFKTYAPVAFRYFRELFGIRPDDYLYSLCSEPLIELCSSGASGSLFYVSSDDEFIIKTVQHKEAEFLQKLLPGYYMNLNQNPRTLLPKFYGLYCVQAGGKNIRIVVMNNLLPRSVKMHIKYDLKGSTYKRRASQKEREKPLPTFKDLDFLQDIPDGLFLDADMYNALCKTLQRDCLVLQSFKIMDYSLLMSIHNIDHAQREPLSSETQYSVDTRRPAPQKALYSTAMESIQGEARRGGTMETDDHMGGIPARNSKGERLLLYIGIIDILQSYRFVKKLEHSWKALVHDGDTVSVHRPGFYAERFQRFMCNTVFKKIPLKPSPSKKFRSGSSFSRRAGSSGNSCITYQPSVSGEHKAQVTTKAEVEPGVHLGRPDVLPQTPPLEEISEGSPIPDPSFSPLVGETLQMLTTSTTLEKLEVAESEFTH
In short: as §1

[15] = molecular target: T4, PKAC-alpha (Homo sapiens, UniProt P17612)
T4 construct: gene PRKACA
In short: as §1

[16] = molecular target: T5, PKAC-beta (Homo sapiens, UniProt P22694)
T5 construct: gene PRKACB
In short: as §1

[17] = molecular target: SBK1 (Homo sapiens, UniProt Q52WX2)
In short: as §1

[18] = molecular target: SRC (Homo sapiens, UniProt P12931)
In short: as §1

[19] = molecular target: SRMS (Homo sapiens, UniProt Q9H3Y6)
In short: as §1

[20] = molecular target: T6, TIE2 (Homo sapiens, UniProt Q02763)
T6 construct: gene TEK
T6 sequence (Q02763 whole entry): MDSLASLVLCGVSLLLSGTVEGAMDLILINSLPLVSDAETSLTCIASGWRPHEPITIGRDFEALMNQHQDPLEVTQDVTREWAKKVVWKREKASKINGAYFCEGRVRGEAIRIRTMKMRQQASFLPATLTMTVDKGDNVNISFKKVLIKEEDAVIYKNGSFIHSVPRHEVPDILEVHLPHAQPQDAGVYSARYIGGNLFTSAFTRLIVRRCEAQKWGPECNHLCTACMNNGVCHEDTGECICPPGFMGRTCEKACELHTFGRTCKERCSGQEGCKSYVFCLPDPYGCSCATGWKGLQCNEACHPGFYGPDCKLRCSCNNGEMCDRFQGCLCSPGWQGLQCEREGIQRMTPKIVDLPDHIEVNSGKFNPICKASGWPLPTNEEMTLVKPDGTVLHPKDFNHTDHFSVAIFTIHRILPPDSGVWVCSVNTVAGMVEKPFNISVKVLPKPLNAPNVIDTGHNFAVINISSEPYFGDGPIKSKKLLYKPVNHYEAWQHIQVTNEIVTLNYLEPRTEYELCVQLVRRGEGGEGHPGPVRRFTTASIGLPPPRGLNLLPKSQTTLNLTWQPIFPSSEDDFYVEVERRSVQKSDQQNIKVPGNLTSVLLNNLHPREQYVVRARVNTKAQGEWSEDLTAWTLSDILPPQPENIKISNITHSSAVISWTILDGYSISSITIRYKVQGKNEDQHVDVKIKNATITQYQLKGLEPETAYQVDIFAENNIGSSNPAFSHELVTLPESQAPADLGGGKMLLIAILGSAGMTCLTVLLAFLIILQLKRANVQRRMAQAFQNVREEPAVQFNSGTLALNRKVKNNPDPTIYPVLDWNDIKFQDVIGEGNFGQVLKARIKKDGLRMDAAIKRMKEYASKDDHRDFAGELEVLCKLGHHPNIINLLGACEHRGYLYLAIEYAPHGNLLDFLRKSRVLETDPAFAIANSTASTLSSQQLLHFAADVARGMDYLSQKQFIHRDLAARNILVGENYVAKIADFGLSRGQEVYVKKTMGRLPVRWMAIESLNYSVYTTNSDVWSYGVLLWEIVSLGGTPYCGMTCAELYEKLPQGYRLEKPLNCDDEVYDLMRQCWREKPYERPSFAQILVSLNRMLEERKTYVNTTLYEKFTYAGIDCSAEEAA
In short: as §1

[21] = molecular target: TLK1 (Homo sapiens, UniProt Q9UKI8)
In short: as §1

[22] = molecular target: WNK1 (Homo sapiens, UniProt Q9H4A3)
WNK1, sequence (Q9H4A3 whole entry): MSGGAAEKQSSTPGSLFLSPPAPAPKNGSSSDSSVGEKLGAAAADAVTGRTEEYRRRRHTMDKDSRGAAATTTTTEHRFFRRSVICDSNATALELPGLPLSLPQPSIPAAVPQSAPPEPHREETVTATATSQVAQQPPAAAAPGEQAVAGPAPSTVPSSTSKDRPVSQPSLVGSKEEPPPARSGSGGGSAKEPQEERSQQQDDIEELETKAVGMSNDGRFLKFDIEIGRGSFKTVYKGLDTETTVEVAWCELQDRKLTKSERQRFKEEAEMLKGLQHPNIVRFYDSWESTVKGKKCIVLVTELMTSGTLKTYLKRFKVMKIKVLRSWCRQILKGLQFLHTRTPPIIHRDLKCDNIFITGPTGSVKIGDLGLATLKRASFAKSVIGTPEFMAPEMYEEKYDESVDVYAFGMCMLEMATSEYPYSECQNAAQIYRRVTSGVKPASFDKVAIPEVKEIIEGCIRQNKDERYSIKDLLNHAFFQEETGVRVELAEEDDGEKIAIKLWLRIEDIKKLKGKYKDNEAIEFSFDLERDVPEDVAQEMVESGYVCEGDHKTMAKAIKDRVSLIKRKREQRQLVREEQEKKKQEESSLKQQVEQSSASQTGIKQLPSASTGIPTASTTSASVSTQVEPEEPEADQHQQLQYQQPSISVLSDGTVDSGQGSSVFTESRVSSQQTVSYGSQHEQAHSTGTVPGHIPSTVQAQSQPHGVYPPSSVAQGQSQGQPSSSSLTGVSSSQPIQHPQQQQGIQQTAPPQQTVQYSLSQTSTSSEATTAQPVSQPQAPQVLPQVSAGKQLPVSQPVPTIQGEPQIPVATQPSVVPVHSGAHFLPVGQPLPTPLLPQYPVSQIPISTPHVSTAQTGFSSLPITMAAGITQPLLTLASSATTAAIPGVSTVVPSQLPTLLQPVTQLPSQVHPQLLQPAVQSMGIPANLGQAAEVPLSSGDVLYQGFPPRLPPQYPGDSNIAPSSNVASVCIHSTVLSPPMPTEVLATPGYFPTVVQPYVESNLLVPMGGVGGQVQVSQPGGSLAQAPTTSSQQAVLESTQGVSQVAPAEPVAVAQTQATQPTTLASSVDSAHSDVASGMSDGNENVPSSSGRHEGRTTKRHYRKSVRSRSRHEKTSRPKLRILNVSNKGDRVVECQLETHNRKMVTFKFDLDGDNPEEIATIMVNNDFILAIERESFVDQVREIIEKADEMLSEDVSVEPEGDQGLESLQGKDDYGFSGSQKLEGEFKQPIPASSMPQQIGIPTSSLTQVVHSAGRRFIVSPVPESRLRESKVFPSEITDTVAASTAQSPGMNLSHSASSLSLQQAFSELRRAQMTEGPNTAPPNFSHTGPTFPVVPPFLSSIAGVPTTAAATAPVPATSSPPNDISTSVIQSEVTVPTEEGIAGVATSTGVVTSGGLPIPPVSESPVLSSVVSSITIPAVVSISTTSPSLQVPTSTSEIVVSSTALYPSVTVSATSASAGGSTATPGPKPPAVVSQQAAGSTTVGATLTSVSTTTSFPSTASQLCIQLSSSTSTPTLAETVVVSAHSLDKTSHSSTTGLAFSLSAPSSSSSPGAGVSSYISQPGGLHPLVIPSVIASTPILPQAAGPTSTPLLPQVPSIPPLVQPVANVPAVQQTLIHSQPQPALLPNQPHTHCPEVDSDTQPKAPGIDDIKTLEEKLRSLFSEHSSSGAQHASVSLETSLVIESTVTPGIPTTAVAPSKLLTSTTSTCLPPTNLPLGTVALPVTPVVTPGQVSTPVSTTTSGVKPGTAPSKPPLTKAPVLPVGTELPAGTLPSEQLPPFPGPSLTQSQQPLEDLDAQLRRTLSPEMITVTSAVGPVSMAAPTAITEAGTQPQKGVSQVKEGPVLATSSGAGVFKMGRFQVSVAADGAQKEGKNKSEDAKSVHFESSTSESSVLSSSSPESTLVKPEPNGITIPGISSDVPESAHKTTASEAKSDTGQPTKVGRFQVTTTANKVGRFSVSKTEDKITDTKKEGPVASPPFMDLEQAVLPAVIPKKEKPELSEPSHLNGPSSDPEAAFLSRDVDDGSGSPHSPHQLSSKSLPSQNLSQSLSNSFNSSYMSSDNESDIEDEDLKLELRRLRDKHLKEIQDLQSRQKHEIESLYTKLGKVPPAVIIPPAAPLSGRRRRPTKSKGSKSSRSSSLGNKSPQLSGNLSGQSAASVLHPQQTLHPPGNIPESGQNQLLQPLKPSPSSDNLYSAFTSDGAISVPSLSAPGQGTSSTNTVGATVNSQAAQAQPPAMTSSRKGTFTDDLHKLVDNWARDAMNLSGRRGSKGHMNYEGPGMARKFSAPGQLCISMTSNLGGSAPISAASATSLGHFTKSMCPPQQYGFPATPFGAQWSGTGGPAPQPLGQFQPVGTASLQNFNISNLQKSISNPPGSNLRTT
In short: as §1

BRSK1, sequence (Q8TDC3 whole entry): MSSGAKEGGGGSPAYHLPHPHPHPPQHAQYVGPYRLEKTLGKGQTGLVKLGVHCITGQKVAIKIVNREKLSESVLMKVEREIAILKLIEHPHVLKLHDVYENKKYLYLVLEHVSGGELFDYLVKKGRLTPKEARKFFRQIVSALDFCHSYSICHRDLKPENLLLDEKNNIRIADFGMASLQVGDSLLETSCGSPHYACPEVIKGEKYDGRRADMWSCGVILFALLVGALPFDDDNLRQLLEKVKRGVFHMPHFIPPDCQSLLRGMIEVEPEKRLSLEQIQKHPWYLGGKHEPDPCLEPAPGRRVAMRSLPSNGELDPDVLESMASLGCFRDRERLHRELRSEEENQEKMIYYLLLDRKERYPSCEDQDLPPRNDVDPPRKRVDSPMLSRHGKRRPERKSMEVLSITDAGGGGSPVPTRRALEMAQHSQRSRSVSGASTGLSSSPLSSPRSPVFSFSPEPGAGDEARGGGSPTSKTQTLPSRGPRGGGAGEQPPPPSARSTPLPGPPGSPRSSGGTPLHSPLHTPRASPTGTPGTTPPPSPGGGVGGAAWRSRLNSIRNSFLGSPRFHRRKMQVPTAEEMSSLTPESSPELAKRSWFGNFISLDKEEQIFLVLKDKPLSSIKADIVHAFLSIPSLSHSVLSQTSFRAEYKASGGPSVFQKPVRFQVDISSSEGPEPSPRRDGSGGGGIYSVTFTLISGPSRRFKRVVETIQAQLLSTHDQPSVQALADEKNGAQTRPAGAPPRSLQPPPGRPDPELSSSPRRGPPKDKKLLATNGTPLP

SMILES: Cc1ncccc1Oc1sc(C(N)=O)c2c1-c1c(cnn1C)CC2 [T-474, 1-methyl-8-((2-methylpyridin-3-yl)oxy)-4,5-dihydro-1H-thieno[3,4-g]indazole-6-carboxamide]
- remaining binding at 0.3 µM [1]: 100%
- remaining binding at 0.3 µM [2]: 100%
- remaining binding at 0.3 µM [3]: 93%
- remaining binding at 0.3 µM [4]: 76%
- remaining binding at 0.3 µM [5]: 100%
- remaining binding at 0.3 µM [6]: 87%
- remaining binding at 0.3 µM [7]: 88%
- remaining binding at 0.3 µM [8]: 60%
- remaining binding at 0.3 µM [9]: 68%
- remaining binding at 0.3 µM [10]: 100%
- remaining binding at 0.3 µM [11]: 100%
- remaining binding at 0.3 µM [12]: 88%
- remaining binding at 0.3 µM [13]: 92%
- remaining binding at 0.3 µM [14]: 99%
- remaining binding at 0.3 µM [15]: 90%
- remaining binding at 0.3 µM [16]: 100%
- remaining binding at 0.3 µM [17]: 91%
- remaining binding at 0.3 µM [18]: 96%
- remaining binding at 0.3 µM [19]: 100%
- remaining binding at 0.3 µM [20]: 99%
- remaining binding at 0.3 µM [21]: 100%
- remaining binding at 0.3 µM [22]: 100%

SMILES: O=C(/C=C/c1cnccc1-c1ccc(F)cc1)Nc1ccc(CCc2nnco2)cc1 [T-418, (2E)-3-(4-(4-fluorophenyl)pyridin-3-yl)-N-(4-(2-(1,3,4-oxadiazol-2-yl)ethyl)phenyl)acrylamide]
- remaining binding at 0.3 µM ([1]; sheet T-418): 100%
- remaining binding at 0.3 µM ([2]; sheet T-418): 100%
- remaining binding at 0.3 µM ([3]; sheet T-418): 95%
- remaining binding at 0.3 µM ([4]; sheet T-418): 83%
- remaining binding at 0.3 µM ([5]; sheet T-418): 100%
- remaining binding at 0.3 µM ([6]; sheet T-418): 100%
- remaining binding at 0.3 µM ([7]; sheet T-418): 80%
- remaining binding at 0.3 µM ([8]; sheet T-418): 100%
- remaining binding at 0.3 µM ([9]; sheet T-418): 84%
- remaining binding at 0.3 µM ([10]; sheet T-418): 100%
- remaining binding at 0.3 µM ([11]; sheet T-418): 100%
- remaining binding at 0.3 µM ([12]; sheet T-418): 71%
- remaining binding at 0.3 µM ([13]; sheet T-418): 84%
- remaining binding at 0.3 µM ([14]; sheet T-418): 94%
- remaining binding at 0.3 µM ([15]; sheet T-418): 66%
- remaining binding at 0.3 µM ([16]; sheet T-418): 88%
- remaining binding at 0.3 µM ([17]; sheet T-418): 73%
- remaining binding at 0.3 µM ([18]; sheet T-418): 90%
- remaining binding at 0.3 µM ([19]; sheet T-418): 100%
- remaining binding at 0.3 µM ([20]; sheet T-418): 85%
- remaining binding at 0.3 µM ([21]; sheet T-418): 100%
- remaining binding at 0.3 µM ([22]; sheet T-418): 100%

Source: article PMC5862592, “CDK8/19 inhibition induces premature G1/S transition and ATR-dependent cell death in prostate cancer cells” (Oncotarget, 2018)
